We go through 14 compounds from PubChem BioAssay AID1261 (University of Pittsburgh Molecular Library Screening Center, 2008).

Records with an inconclusive call do not appear. Active and inactive are the calls of the source. How the calls were made is not given here.

The assay concerns the target Tyrosine-protein phosphatase YopH [Yersinia enterocolitica]. The assay is described as follows: potency against Yersinia YopH phosphatase – biochemical, 10-point dose range, dose response (AID 1261). The conditions noted are these: YopH phosphatase enzymatic assay, IC50, 3 runs; for inhibition: at 50 µM, stronger effect = higher value.

Turning to `Cc1ccc(C(=O)N2C(=S)C(c3ccc(F)cc3)=NC23CCN(C)CC3)cc1`, the inhibition is -3.79%.

On to `CCN(CC)c1ccc(/C=N/Nc2cccc(C)c2)c(O)c1`, for which the IC50 was > 50 µM (inactive) and the inhibition was 9.95%.

For the compound `O=C1CCC(=O)N1CC(=O)N1c2ccccc2Sc2ccccc21`, the inhibition is -12.5%. Regarding `O=C(NC(C(=O)O)c1ccccc1)c1ccc(S(=O)(=O)N2CCOCC2)cc1` (stereo not given), the inhibition is -10.8%.

Regarding `O=C(NCc1ccccc1)C1CCCN1S(=O)(=O)c1cccc2cccnc12` (stereo not given), the inhibition is -2.68%.

For the compound `COc1ccc(NC(=O)/C(=C/c2cccnc2)NC(=O)c2cccs2)cc1`, the inhibition was -16.6%.

Consider `CCOC(=O)c1nc(C)n(-c2ccc(Cl)cc2)n1`, for which the inhibition is -5.92%. For the compound `Cc1ccc(C(c2sc3nc(C)nn3c2O)N2CCOCC2)cc1` (stereo not given), the inhibition is -10.3%. Same read-out and setting: then `COC(=O)Cc1cnc(NC(=O)C2C3CCC(C3)C2C(=O)O)s1` (stereo not given), with -18.2%. Turning to `C#CCn1cc(C=C2C(=O)c3ccccc3C2=O)c2ccccc21`, the inhibition is 11.1%. On the same count and under the same terms, then `O=C(OCC1O[C@@H](OC(=O)c2cc(O)c(O)c(O)c2)[C@@H](OC(=O)c2cc(O)c(O)c(O)c2)[C@@H](OC(=O)c2cc(O)c(O)c(O)c2)[C@@H]1OC(=O)c1cc(O)c(O)c(O)c1)c1cc(O)c(O)c(O)c1` (stereo not given in full), with 72.5%.

On to `O=C(COC(=O)c1ccc([N+](=O)[O-])s1)Nc1ccccc1`, for which the inhibition is -23.9%.

`CCO/C=C1/C(=O)N(Cc2ccccc2)C(=O)c2ccccc21`: the inhibition came to 49.7%. Take `CN(C(=O)COc1ccc(C(C)(C)C)cc1)C1CCS(=O)(=O)C1` (stereo not given): the inhibition is -19.1%.
